In patent US11220505B2, “5-hydroxytryptamine receptor 7 modulators and their use as therapeutic agents” (Temple University-Of the Commonwealth System of Higher …, priority 2017, dated 2022):

The compounds below were run against Serotonin 5-HT7 Receptors (Homo sapiens (Human), UniProt P34969) (assay: Radiolabel Binding Studies for Serotonin 5-HT7 Receptors, Method 2 ([3H]-5HT competition; Ki and percent inhibition at 10 μM)). Details: @ 10 μM single concentration; read-out: 5-HT7 percent inhibition of radioligand binding.
Sequence of Serotonin 5-HT7 Receptors (P34969 whole entry): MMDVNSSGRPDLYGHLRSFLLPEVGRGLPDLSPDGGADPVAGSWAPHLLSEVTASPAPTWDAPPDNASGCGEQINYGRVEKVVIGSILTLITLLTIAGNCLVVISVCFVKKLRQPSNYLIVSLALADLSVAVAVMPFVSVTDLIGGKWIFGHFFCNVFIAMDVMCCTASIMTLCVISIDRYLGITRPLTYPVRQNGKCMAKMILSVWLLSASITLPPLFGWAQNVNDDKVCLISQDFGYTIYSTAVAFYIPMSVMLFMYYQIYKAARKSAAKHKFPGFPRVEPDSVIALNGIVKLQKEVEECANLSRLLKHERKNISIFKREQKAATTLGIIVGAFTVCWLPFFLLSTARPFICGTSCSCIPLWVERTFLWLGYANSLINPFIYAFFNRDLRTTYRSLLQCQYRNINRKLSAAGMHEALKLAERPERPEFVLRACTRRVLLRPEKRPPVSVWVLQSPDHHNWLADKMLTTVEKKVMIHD
Protocol: Radiolabel Binding Studies for Serotonin 5-HT7 Receptors, Method 2:
A solution of the compound of the disclosure to be tested is prepared as a 1-mg/ml stock in Assay Buffer or DMSO according to its solubility. A similar stock of the reference compound chlorpromazine is also prepared as a positive control. Eleven dilutions (5×assay concentration) of the compound of the disclosure and chlorpromazine are prepared in the Assay Buffer by serial dilution to yield final corresponding assay concentrations ranging from 10 pM to 10 μM.
A stock concentration of 5 nM [^3H]-5-Hydroxytryptamine ([^3H]-5HT) is prepared in 50 mM Tris-HCl, 10 mM MgCl2, 1 mM EDTA, pH 7.4 (Assay Buffer). Aliquots (50 μl) of radioligand are dispensed into the wells of a 96-well plate containing […] of Assay Buffer. Duplicate 50-μl aliquots of the compound of the disclosure test and chlorpromazine positive control reference compound serial dilutions are added.
Membrane fractions of cells expressing recombinant 5HT7 receptors (50 μL) are dispensed into each well. The membranes are prepared from stably transfected cell lines expressing 5HT7 receptors cultured on 10-cm plates by harvesting PBS-rinsed monolayers, resuspending and lysing in chilled, hypotonic 50 mM Tris-HCl, pH 7.4, centrifuging at 20,000×g, decanting the supernatant and storing at −80° C.; the membrane preparations are resuspended in 3 ml of chilled Assay Buffer and homogenized by several passages through a 26 gauge needle before using in the assay.
The 250-μl reactions are incubated at room temperature for 1.5 hours, then harvested by rapid filtration onto 0.3% polyethyleneimine-treated, 96-well filter mats using a 96-well Filtermate harvester. Four rapid 500-μl washes are performed with chilled Assay Buffer to reduce non-specific binding. The filter mats are dried, then scintillant is added to the filters and the radioactivity retained on the filters is counted in a Microbeta scintillation counter.
Raw data (dpm) representing total radioligand binding (i.e., specific+non-specific binding) are plotted as a function of the logarithm of the molar concentration of the competitor (i.e., test or reference compound). Non-linear regression of the normalized (i.e., percent radioligand binding compared to that observed in the absence of test or reference compound) raw data is performed in Prism 4.0 (GraphPad Software) using the built-in three parameter logistic model describing ligand competition binding to radioligand-labeled sites: y=bottom+[(top−bottom)/(1+10x−log IC50)] where bottom equals the residual radioligand binding measured in the presence of 10 μM reference compound (i.e., non-specific binding) and top equals the total radioligand binding observed in the absence of competitor. The log IC50 (i.e., the log of the ligand concentration that reduces radioligand binding by 50%) is thus estimated from the data and used to obtain the Ki by applying the Cheng-Prusoff approximation: Ki=IC50/(1+[ligand]/KD) where [ligand] equals the assay radioligand concentration and KD equals the affinity constant of the radioligand for the target receptor.
Compounds of the disclosure are also screened at a single concentration of 10 μM using the same method described for the Radiolabel Binding Studies for Serotonin 5HT7 receptors to determine the percent inhibition of [^3H]-5HT binding.

inhibition at 10 µM	Structure (SMILES)
24.5%	CCC1(CC)CC(CCN2CC3CN(c4ccc(OC)cc4)CC3C2)OC1=O (stereo not shown) [Entry 12]
39.8%	CCC1(CC)CC(CCN2CC3CN(c4cccc(O)c4)CC3C2)OC1=O (stereo not shown) [Entry 14]
44.5%	CCC1(CC)CC(CCN2CC3CN(c4ccc(C)cc4)CC3C2)OC1=O (stereo not shown) [Entry 6]
48.9%	CCC1(CC)CC(CCN2CC3CN(c4cccc(C#N)c4)CC3C2)OC1=O (stereo not shown) [Entry 8]
26.3%	CCC1(CC)CC(CCN2CC3CN(c4ccc(C#N)cc4)CC3C2)OC1=O (stereo not shown) [Entry 9]

Same assay, conditions: radiolabel binding, 5HT7 receptors

IC50	Structure (SMILES)
104 nM	CCC1(CC)CC(CCN2CC3CN(c4cccc(C)c4)CC3C2)OC1=O (stereo not shown) [Entry 5]
64 nM	CCC1(CC)CC(CCN2CC3CN(c4ccccc4)CC3C2)OC1=O (stereo not shown) [Entry 1]
911 nM	CCC1(CC)CC(CCN2CC3CN(c4cccc(OC)c4)CC3C2)OC1=O (stereo not shown) [Entry 11]
8.9 nM	CCC1(CC)CC(CCN2CC3CN(c4ccccc4C#N)CC3C2)OC1=O (stereo not shown) [Entry 7]
130 nM	CCC1(CC)CC(CCN2CC3CN(c4ccc(O)cc4)CC3C2)OC1=O (stereo not shown) [Entry 15]

More lines, now with the values behind:

Structure (SMILES)	IC50
CC(C)c1ccccc1N1CC2CN(CCC3CC4(CCCCC4)C(=O)O3)CC2C1 (stereo not shown) [Entry 3]	268 nM
CCC1(CC)CC(CCN2CC3CN(c4ccccc4OC)CC3C2)OC1=O (stereo not shown) [Entry 10]	151 nM
CCC1(CC)CC(CCN2CC3CN(c4ccccc4C)CC3C2)OC1=O (stereo not shown) [Entry 4]	179 nM
CCC1(CC)CC(CCN2CC3CN(c4ccccc4O)CC3C2)OC1=O (stereo not shown) [Entry 13]	227 nM
CCC1(CC)CC(CCN2CC3CN(c4ccccc4N4CCOCC4)CC3C2)OC1=O (stereo not shown) [Entry 16]	160 nM
CCC1(CC)CC(CCN2CC3CN(c4ccccc4C(C)C)CC3C2)OC1=O (stereo not shown) [Entry 2]	277 nM
